Where a SMILES comes first, the peptide text is derived from it. Bridges are numbered along the chain shown (N, C = ends).
Key:
[1] = system: patients with chronic idiopathic constipation (CIC); type: in vivo
Protocol: (§1) A randomized, double-blind, placebo-controlled, 14-day repeat oral, dose ranging study was conducted in patients with chronic idiopathic constipation (CIC). […] One secondary objective was to assess the pharmacokinetic profile of SP-304 in plasma.
(§2) Subjects diagnosed with CIC were screened for the anticipated 4 cohorts to yield 80 randomized subjects for enrollment. […] Subjects who continued to meet all the entry criteria and complete the pre-treatment bowel movement (BM) diary received, in a double-blind, randomized fashion, SP-304 or matching placebo. The entry criteria included (1) meeting modified ROME III criteria for chronic constipation (CC); (2) no significant finding in colonoscopy within past 5 years; (3) good health as determined by physical examination, medical history, vital signs, ECG, clinical chemistry, hematology, urinalysis, drug screen and serology assessments; and (4) during 14-day pre-treatment period, subjects reporting <6 SBM and <3 CSBM in each pre-treatment week.
(§3) The majority of adverse events were mild/moderate and transient in nature. […] The table below is a GI-related adverse event (AE) summary.

[2] = Clinical study in CIC patients: pharmacokinetic profile of SP-304 in plasma; type: in vivo, Humans; details: oral, 14 days, assay sensitivity ≥10 ng/mL
Protocol: as §1, §2, §3

[3] = system: patients with chronic idiopathic constipation (CIC); assay: Clinical study in CIC patients: pharmacodynamic effects (efficacy), bowel habits; type: in vivo, Humans; details: for time to first bowel movement: after daily dose
Protocol: as §1, §2

[4] = Excipient compatibility: percent purity (HPLC) of SP-304 in binary mixtures stored at 40 C/75RH; type: physicochemical
From the text: For solid excipients the binary mixtures were comprised of 9.1% or 50% excipient. Glass vials were stored at 40 C/75RH open or closed.

[5] = 14-day repeat oral dosing, CIC patients
[6] = daily treatment 14 days, CIC patients

With `CC(C)C[C@H](NC(=O)[C@@H]1CSSC[C@@H]2NC(=O)[C@H](CC(C)C)NC(=O)[C@H](CCC(=O)O)NC(=O)[C@@H](NC(=O)[C@H](CCC(=O)O)NC(=O)[C@H](CC(=O)O)NC(=O)[C@@H](N)CC(N)=O)CSSC[C@H](NC(=O)[C@H](C)NC(=O)[C@H](C(C)C)NC(=O)[C@H](CC(N)=O)NC(=O)[C@H](C(C)C)NC2=O)C(=O)N[C@@H]([C@@H](C)O)C(=O)NCC(=O)N1)C(=O)O` [SP-304, Asn^1-Asp^2-Glu^3-Cys^4-Glu^5-Leu^6-Cys^7-Val^8-Asn^9-Val^10-Ala^11-Cys^12-Thr^13-Gly^14-Cys^15-Leu^16] (H-NDECELCVNVACTGCL-OH; disulfide 4-12, 7-15) as the molecule, how does the deaths [1, 5] read?
Its deaths is “no deaths reported”.

And the “serious adverse events (SAE)” value [1, 5]?
Its value is “No serious adverse events”.

And the diarrhea ([1]; human, in vivo)?
Its diarrhea is “no diarrhea reported”.

What about the “subjects reporting GI-related adverse events considered as related to treatment” value ([1]; human, in vivo) of the same molecule?
The value was 5.2%.

And the “subjects reporting adverse events considered as related to the treatment” value ([1]; human, in vivo)?
The value was 17.2%.

And the “systemic absorption of plecanatide” value [2]?
The value was “no detectable systemic absorption”.

And the stool consistency ([3]; Bristol Stool Form Scale, daily treatment 14 days)?
Its stool consistency is “improved”.

What about the “time to first bowel movement” value ([3]; CIC patients) of the same molecule?
The value was “decreased”.

What about the “time to first bowel movement” value ([3]; CIC patients, listed as Plecanatide) of the same molecule?
The value was “reduced”.

And the abdominal discomfort [3, 6]?
The abdominal discomfort was “reduced”.

What about the “stool frequency (CSBM)” value [3, 6] of the same molecule?
The value was “increased”.

What about the “stool frequency (SBM)” value [3, 6] of the same molecule?
The value was “increased”.

What about the straining [3, 6] of the same molecule?
Its straining is “reduced”.

And the “percent purity of SP-304 (HPLC), Closed 1 M” value ([4]; closed glass vial, 1 month)?
The value was 91.4%.

And the “percent purity of SP-304 (HPLC), Closed 2 M” value ([4]; closed glass vial, 2 months)?
Its value is 88.2%.

What about the “percent purity of SP-304 (HPLC), Open 0.5 M” value ([4]; open glass vial, 0.5 month) of the same molecule?
Its value is 93.7%.

And the “percent purity of SP-304 (HPLC), Open 1 M” value ([4]; open glass vial, 1 month)?
The value was 91.2%.

And the “percent purity of SP-304 (HPLC), Open 2 M” value ([4]; open glass vial, 2 months)?
Its value is 88.2%.

What about the “percent purity of SP-304 (HPLC), Open 3 M” value ([4]; open glass vial, 3 months) of the same molecule?
The value was 84.8%.

From patent US9925231B2, “Formulations of guanylate cyclase C agonists and methods of use” (SYNERGY PHARMACEUTICALS, INC., priority 2010, dated 2018)
